Here are results for three compounds from US20240342137A1 (priority 2023, published 2024).

In brackets after ≈: the same amount, converted by molar mass. Where two headings read alike, the source gives them in different places.

Data set [1] is classed as physicochemical. The note with it: pH 6.
In a further data set the target is T1, alpha-2 adrenoceptors.
T1 construct: rows headed: Alpha-2 Ki; other: [3H]clonidine displacement, brain membrane; other: alpha-2; lower sensitivity compared to atipamezole; other: alpha-2, vs atipamezole
The note with it: cited from earlier work; for IC50: read-out: half-maximal inhibitory concentration.

Another data set addresses alpha-1 adrenoceptors. The note with it: cited from earlier work.
For data set [2], the system named is other neurotransmitter receptors including I2 and 5-HT. To be noted: cited from earlier work.
Data set [3] relates to other adrenergic, opioid or GABA (Gamma-AminoButyric Acid class) sedative and analgesic agents. To be noted: cited from earlier work.
Data set [4] concerns xylazine sedative effects. The note with it: in vivo; cited from earlier work.
Another data set in a line: physchem. To be noted: water.
The conditions of data set [5]: human, in vivo, cited from earlier work.
For data set [6] the following is noted: human, in vivo, 20 mg, cited from earlier work.
For data set [7] the following is noted: human, in vivo; cited from earlier work.

Regarding `CCC1(c2cnc[nH]2)Cc2ccccc2C1` [Atipamezole, 4-(2-ethyl-2,3-dihydro-1H-inden-2-yl)-1H-imidazole], in [1], the “final atipamezole concentration when fully dissolved” value came out at 375.8 mM. At alpha-2 adrenoceptors, the inhibitory constant (Ki) is 1.6 nM and the IC50 is 1.6 nM. Further, the inhibition constant Ki at alpha-1 adrenoceptors was 13300 nM. Moreover, in data set [2], the “effect on other neurotransmitter receptors including I2 and 5-HT” value is given as “Negligible or no effect on other neurotransmitter receptors including I2”. Besides, the “effect on other adrenergic, opioid or GABA sedative and analgesic agents” value in data set [3] is reported as “No effect on other adrenergic, opioid or GABA (Gamma-AminoButyric”. Also, in data set [4], the “breathing rate reversal of xylazine sedative effects” value is on record as “Rapid breathing rate reversal of xylazine sedative effects within a few” and the “concentrations of atipamezole for restoring breathing rate” value is 10 to 20 ng/mL. Also, in the data set “physchem”, the solubility is ~70 µg/mL (≈ 330 µM). In addition, in [5] (iv, 15 ug/kg), the T1/2 is given as 2.04 h and the Tmax is recorded as 0.25 h. Further, the T1/2 in data set [5] (iv, 50 ug/kg) is recorded as 1.92 h. The T1/2 in data set [5] (iv, 150 ug/kg) is 1.83 h. In addition, in data set [5] (iv), the elimination half-life entry is “approximately 2 hour”. Further, the elimination half-life result in [5] is reported as “Short elimination half-life (~2 h in humans) improving safety”. Moreover, in data set [6], the AUC is 85 ng·h/mL, the peak concentration (Cmax) was 23 ng/mL, the T1/2 is recorded as 2.0 h and the Tmax is 0.76 h. In data set [6] (iv), the AUC is 231 ng·h/mL, the Cmax was 145 ng/mL and the T1/2 was 1.8 h. Besides, in data set [6] (po), the AUC is 4.2 ng·h/mL, the Cmax is on record as 1.2 ng/mL, the T1/2 was 2.0 h and the Tmax was 0.82 h. In addition, in [7], the “increase in heart rate and blood pressure” value is 14-17 mmHg (which may benefit those who are under deep respiratory; the “safety in humans by dose” value is “safe up to 100 mg dose”; the “untoward or Severe Adverse Event (SAE)” value is recorded as “At 30-100 mg/dose in human with no major untoward or Severe Adverse”.

With `COC(=O)[C@@H]1[C@H]2C[C@H]3c4[nH]c5ccccc5c4CCN3C[C@@H]2CC[C@@H]1O` [Yohimbine], at alpha-1 adrenoceptors, the Ki was 5130 nM.

For the compound `c1ccc2c(c1)OCC(C1=NCCN1)O2` (stereo not drawn) [Idazoxan], on alpha-2 adrenoceptors, the Ki is 148 nM and the IC50 is 148 nM. Further, the inhibition constant (Ki) on alpha-1 adrenoceptors was 3960 nM.
